The record followed here is ChEMBL document CHEMBL1201862, “PubChem BioAssay data set” (2004).

Holding throughout (experiment): NCI anticancer screen, dose series, 48 h
Experiment [1] has as its system 786-0.
The subject of experiment [2] is CAKI-1.
The subject of experiment [3] is EKVX.
The test system of experiment [4] is HCT-15.
Experiment [5] concerns HL-60.
The subject of experiment [6] is HOP-62.
In experiment [7] the test system is Hs-578T.
Experiment [8] concerns KM12.
Experiment [9] deals with MDA-MB-231.
Experiment [10] deals with NCI-H460.
Experiment [11] concerns NCI-H522.
In experiment [12] the test system is OVCAR-4.
Experiment [13] concerns OVCAR-8.
For experiment [14], the system named is SF-268.
For experiment [15], the system named is SF-539.
In experiment [16] the test system is SN12C.
For experiment [17], the system named is SNB-19.
In experiment [18] the test system is U-251.
For experiment [19], the system named is UACC-257.
Experiment [20] concerns SR.

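Cells were grown in 96-well plates and exposed to each compound for 48 hours at five concentrations; endpoints were interpolated linearly between bracketing concentrations, or set to the highest concentration if not reached. Abbreviation: GI50, concentration required for 50% inhibition of growth.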 The source made the active and inactive calls. Rule as the data show it: active = GI50 up to about 1.1 µM and inactive = higher. Square brackets hold non-standard residues; d marks the D form. Peptide text beside a SMILES is read from it. * marks the point of attachment. Bn2Val = CC(C)[C@@H](C(=O)*)N(Cc1ccccc1)Cc1ccccc1; NH(3,4-diMeO-benzyl) = COc1ccc(CN*)cc1OC; NMeV = CN[C@H](C(=O)O)C(C)C; dNMeA = CN[C@H](C)C(=O)O

For `CCc1cc(O)c(Cl)c(C)c1Cl`, the GI50 is 17.1 µM (inactive) in experiment [1]; 17.3 µM (inactive) in [2]; 11.9 µM (inactive) in experiment [3]; 17.4 µM in experiment [4]; 33.7 µM (inactive) in [5]; 18.7 µM (inactive) in experiment [6]. Further, the GI50 in [7] was 17.8 µM (inactive); in experiment [8], 15.2 µM (inactive); in experiment [9], 27 µM (inactive); in experiment [10] it was 15.6 µM (inactive); in experiment [11], 11.7 µM (inactive); in [12] it was 15.1 µM (inactive). The GI50 in experiment [13] is 18.2 µM (inactive); in [14], 20.9 µM (inactive); in experiment [15], 18.2 µM (inactive); in experiment [16], 15.6 µM (inactive); in [17], 30.3 µM (inactive); in experiment [18], 18 µM (inactive). In [19], the GI50 was 17.2 µM (inactive).

Take `COC(=O)[C@H](CNC(=O)/C=C/c1ccc(OC(C)=O)c(OC(C)=O)c1)NC(=O)/C=C/c1ccc(OC(C)=O)c(OC(C)=O)c1`: the GI50 was > 100 µM (inactive) in experiment [1]; > 100 µM (inactive) in experiment [2]; > 100 µM (inactive) in experiment [3]; 69.7 µM in experiment [4]; > 100 µM (inactive) in experiment [5]; > 100 µM (inactive) in experiment [6]. The GI50 in [7], in experiment [8], in experiment [9], in experiment [10], in experiment [12] and in [13] was > 100 µM (inactive) throughout. Also, the GI50 in [14] was > 10 µM (inactive); in experiment [15], > 100 µM (inactive); in experiment [16], > 100 µM (inactive); in experiment [17], > 100 µM (inactive); in experiment [20], > 100 µM (inactive); in experiment [18] it was > 100 µM (inactive). Further, the GI50 in experiment [19] is > 100 µM (inactive).

For the compound `C[n+]1c2ccccc2c2/c(=C\C#N)c3ccccc3n21`, the GI50 in experiment [1] is 3.5 µM (inactive); in experiment [2], 23.8 µM (inactive); in [3] it was 2.44 µM (inactive); in [4], 28.4 µM; in experiment [5] it was 3.85 µM (inactive); in experiment [6], 2.84 µM (inactive). For the same compound, the GI50 in [7] was 4.21 µM (inactive); in experiment [8] it was 3.61 µM (inactive); in experiment [9], 4.43 µM (inactive); in experiment [10] it was 4.35 µM (inactive); in [12], 2.79 µM (inactive); in [13] it was 3.52 µM (inactive). Further, the GI50 in experiment [14] was 6.27 µM (inactive); in experiment [15], 4.82 µM (inactive); in experiment [16], 3.42 µM (inactive); in experiment [17], 5.24 µM (inactive); in [20], 3.91 µM (inactive); in experiment [18], 2.73 µM (inactive). The GI50 in experiment [19] was 3.06 µM (inactive).

Take `O=C1CC(NC(=O)C(F)(F)F)c2c(Br)sc(N3CCC(c4ccccc4)CC3)c21` (stereo not drawn): the GI50 was 20.8 µM (inactive) in experiment [1]; 12.9 µM (inactive) in experiment [2]; 43.9 µM (inactive) in experiment [3]; 25.1 µM in experiment [4]; 9.44 µM (inactive) in experiment [5]; 20 µM (inactive) in [7]. Besides, the GI50 is > 100 µM (inactive) in [8]; 3.73 µM (inactive) in [9]; 13.7 µM (inactive) in experiment [10]; 7.94 µM (inactive) in [11]; 11.5 µM (inactive) in [12]; 24.9 µM (inactive) in experiment [13]. Besides, the GI50 was 43.4 µM (inactive) in experiment [14]; 44.6 µM (inactive) in [15]; > 100 µM (inactive) in experiment [16]; 20.8 µM (inactive) in experiment [17]; 6.76 µM (inactive) in [18]; 13.4 µM (inactive) in experiment [19].

With `COc1ccccc1C1(c2c(OC(C)C)c(=O)c2=O)SCCCS1`, the GI50 in [1] is > 100 µM (inactive); in experiment [2] it was > 100 µM (inactive); in experiment [3], > 100 µM (inactive); in [4], greater than 100 µM; in experiment [5], > 100 µM (inactive); in experiment [6], > 100 µM (inactive). In addition, the GI50 in experiment [7] is > 100 µM (inactive); in [8] it was > 100 µM (inactive); in experiment [9], > 100 µM (inactive); in experiment [10] it was > 100 µM (inactive); in [11], 65.9 µM (inactive); in [12], > 100 µM (inactive). In addition, the GI50 in experiment [13], in experiment [14], in experiment [15], in experiment [16], in experiment [17] and in experiment [18] was > 100 µM (inactive) each time. Further, the GI50 in [19] was > 100 µM (inactive).

As to `CCCCCCCCCCCCOCC1(COCCCCCCCCCCCC)COC(c2ccc(N)cc2)OC1`, the GI50 in experiment [1] is > 100 µM (inactive); in experiment [2], > 100 µM (inactive); in experiment [3], > 100 µM (inactive); in experiment [4] it was greater than 100 µM; in experiment [6] it was > 100 µM (inactive); in [7] it was > 100 µM (inactive). Moreover, the GI50 is > 100 µM (inactive) in experiment [8]; > 100 µM (inactive) in [9]; > 10 µM (inactive) in experiment [10]; > 100 µM (inactive) in experiment [12]; > 100 µM (inactive) in experiment [13]; > 100 µM (inactive) in [14]. The GI50 in experiment [15], in experiment [16], in experiment [17], in experiment [20], in experiment [18] and in experiment [19] was > 100 µM (inactive) each time.

As for `COc1ccc(CNC(=O)[C@@H](C)N(C)C(=O)[C@@H]2CCCN2C(=O)[C@H](C(C)C)N(C)C(=O)[C@@H](NC(=O)[C@H](C(C)C)N(Cc2ccccc2)Cc2ccccc2)C(C)C)cc1OC` (Bn2Val-V[NMeV]P[dNMeA]-{NH(3,4-diMeO-benzyl)}), the GI50 in experiment [1] is 8.97 µM (inactive); in experiment [2], 11.4 µM (inactive); in experiment [3], 6.24 µM (inactive); in experiment [4], 7.18 µM; in experiment [5] it was 1.8 µM (inactive); in [6], 8 µM (inactive). In addition, the GI50 was 1.36 µM (inactive) in experiment [7]; 10.4 µM (inactive) in experiment [8]; 8.15 µM (inactive) in experiment [9]; 9.73 µM (inactive) in experiment [10]; 3.19 µM (inactive) in experiment [11]; 12.6 µM (inactive) in experiment [12]. Moreover, the GI50 in experiment [13] was 14.1 µM (inactive); in experiment [14], 6.41 µM (inactive); in experiment [15], 7.89 µM (inactive); in experiment [16], 8.13 µM (inactive); in experiment [17], 7.48 µM (inactive); in experiment [18], 7.6 µM (inactive). Also, the GI50 in experiment [19] is 7.43 µM (inactive).

For the compound `CC12CCC(C1)C(C)(C)C2OC(=O)c1ccccc1C(=O)O` (stereo not drawn), the GI50 in [1] is > 100 µM (inactive); in experiment [2], > 100 µM (inactive); in experiment [3], > 100 µM (inactive); in [4], greater than 100 µM; in [5], > 100 µM (inactive); in [6] it was 34.7 µM (inactive). The GI50 in experiment [7] was 8.97 µM (inactive); in experiment [8] it was > 100 µM (inactive); in experiment [9], > 100 µM (inactive); in [10] it was > 100 µM (inactive); in [11] it was > 100 µM (inactive); in experiment [12] it was > 100 µM (inactive). In addition, the GI50 in [13], in experiment [14], in experiment [16], in experiment [17], in experiment [18] and in experiment [19] was > 100 µM (inactive) in each case.

Turning to `CN(C)CCN1C(=O)N(CCN(C)C)c2c3cc(O)ccc3nc3c([N+](=O)[O-])ccc1c23`, the GI50 in experiment [1] is 6.62 µM (inactive); in [2], 13.1 µM (inactive); in experiment [4], 6.52 µM; in experiment [7], 16.9 µM (inactive); in experiment [8] it was 7.91 µM (inactive); in experiment [9] it was 10.5 µM (inactive). The GI50 was 3.63 µM (inactive) in experiment [10]; 16.6 µM (inactive) in experiment [11]; 9.66 µM (inactive) in [12]; 5.55 µM (inactive) in experiment [13]; 8.47 µM (inactive) in [14]; 9.2 µM (inactive) in experiment [16]. For the same compound, the GI50 in experiment [17] is 6.05 µM (inactive); in experiment [20] it was 0.245 µM (active); in experiment [18] it was 9.93 µM (inactive); in experiment [19], 15.3 µM (inactive).

As to `Nc1nc(Cl)nc(NCc2ccccc2)n1`, the GI50 in experiment [1] was > 100 µM (inactive); in experiment [2], > 100 µM (inactive); in [3], > 100 µM (inactive); in experiment [4], greater than 100 µM; in experiment [5] it was 48 µM (inactive); in [6], > 100 µM (inactive). Further, the GI50 in experiment [7], in experiment [8], in [9], in experiment [10], in [12] and in [13] was > 100 µM (inactive) each time. The GI50 in [14] is > 100 µM (inactive); in experiment [15] it was > 100 µM (inactive); in [16], > 100 µM (inactive); in experiment [17] it was > 100 µM (inactive); in experiment [20], 67.8 µM (inactive); in [18] it was > 100 µM (inactive). The GI50 in experiment [19] is > 100 µM (inactive).

Regarding `c1ccc(C2=NN=C3C(c4ccccc4)=Nc4ccccc4N3C2)cc1`, the GI50 in experiment [1] was 11.9 µM (inactive); in experiment [2], 43.7 µM (inactive); in experiment [3], 23.6 µM (inactive); in experiment [4], 11.6 µM; in experiment [5] it was 3.56 µM (inactive); in experiment [6], 27 µM (inactive). Moreover, the GI50 is 26.6 µM (inactive) in [7]; 29 µM (inactive) in experiment [8]; 38.9 µM (inactive) in experiment [9]; 5.07 µM (inactive) in experiment [10]; 3.84 µM (inactive) in [11]; 4.58 µM (inactive) in [12]. The GI50 in experiment [13] is 10 µM (inactive); in experiment [14], 9.48 µM (inactive); in experiment [15], 39.5 µM (inactive); in experiment [16], 29.9 µM (inactive); in experiment [17] it was 24.2 µM (inactive); in [18] it was 14.3 µM (inactive). The GI50 in [19] was 7.55 µM (inactive).
